These results are taken from patent US11434270B2, “Protein for neutralizing programmed necrocytosis promotion antibody, and application of protein” (SHANGHAI JW INFLINHIX CO., LTD., priority 2015, dated 2022).

In one test the test system is L929 cells. Kind of test: Apoptosis and necrosis test (live/dead staining, active caspase-3, flow cytometry) in L929 cells. The class given is cell-based, mouse. How it is done:
(§1) In the presence of TNF or TNF peptide with or without 20 μM z-VAD-FMK (R & D Systems, Minneapolis, Minn.) or 20 μM Necrotatin-1 (PeproTech, Rocky Hill, N.J.) (Immunotools, Friesoythe, Germany), cells were incubated overnight (or the time shown in the incubation diagram). In some experiments, TNF was co-cultured with cells and the monoclonal antibody with indicated concentration or synovial fluid. Cells were stained using live/dead cell staining kit (Invitrogen, Paisley, UK) according to the manufacturer's manual and fixed using a cytofix/cytoperm fixation/permeabilization solution kit (BD Pharmingen, Oxford, UK). Intracellular staining was then performed using FITC-conjugated anti-caspase-3 antibody (Cell Signaling Technology, Danvers, Mass., USA). Cells were harvested by CyAn flow cytometer (Beckman Coulter, Fullerton, Calif.), and data were analysed by Flowjo (Tree Star Inc. Ashland, Oreg.).
(In general: Flow cytometry measures light scatter and fluorescence of single cells or particles in a stream.)

In test [1] the test system is cells. Kind of test: Stimulation of cell proliferation. It counts as cell-based. The settings on record: summary table.
For test [2], the system named is cell necrosis-promoting antibody (244-12). Kind of test: ELISA binding of polypeptide to cell necrosis-promoting antibody. The settings on record: for binding to cell necrosis-promoting antibodies: summary table. As for the experimental part: (§2) However, the reaction with synovial fluid of a control patient without autoantibodies (SF010) was negative. ELISA plates were coated with 2 μg/ml of P11-17, blocked with BSA, incubated with 244-12, SF024, SF045, SF010 at room temperature for 1 hour, and then identified with horseradish peroxidase […] anti-mouse or human IgG secondary antibody.

Test [3] relates to monoclonal antibody 244-12. The test can be described thus: Competitive inhibition ELISA of TNF binding to monoclonal antibody 244-12. The settings on record: plates coated with TNF, peptide added, then 244-12. How it is done: (§3) ELISA plates were coated with 2 μg/ml of TNF at 4° C. overnight, or at 37° C. for 2 hours, and then incubated with a monoclonal antibodies at 37° C. for 1 hour. A second antibody conjugated to HRP was used to detect the reaction. For the inhibition assay, TNFR1 or synovial fluid was added together with the monoclonal antibody.
METHODS: plates were coated with TNF, and the indicated peptides were added to each well, and then the monoclonal antibody 244-12 was added.
In general terms: In an ELISA, binding on a coated surface is turned into a signal by an enzyme label.

In test [4] the test system is cell necrosis caused by cell necrosis-promoting antibody. Kind of test: Inhibition of cell necrosis caused by cell necrosis-promoting antibody. It counts as cell-based. How it is done:
as §1

Test [5] relates to cells. Kind of test: Apoptosis and necrosis test, cell line not stated. It counts as cell-based. The settings on record: summary table. How it is done:
as §1

Test [6] has as its system cell necrosis-promoting antibodies present in joint fluid of arthritis patients. Kind of test: ELISA binding of polypeptide to autoantibodies in synovial fluid of arthritis patients. Details: species or system human. The settings on record: plate coated with 2 μg/ml of P11-17. How it is done: as §2
The test system of test [7] is C2812 cells (chondrocytes). Kind of test: Apoptosis test (active caspase-3) in C2812 chondrocytes. It counts as cell-based, human. The settings on record: antibody added to TNF. As for the experimental part: as §1
A further test addresses T1, TNF (Homo sapiens, UniProt P01375).
T1 construct: purchased Immunotools
The test can be described thus: ELISA screening of monoclonal antibodies for binding to TNF. The note with it: screening of 33 monoclonal antibodies. As for the experimental part:
as §3

A further test deals with TNF receptors. Kind of test: L929 cell immunofluorescence microscopy: TNF/antibody binding to cell surface TNF receptors. It counts as cell-based, mouse. As for the experimental part:
At room temperature, 20 ng/ml of TNF and 2 μg/ml of mAb M26 or 244-12 were incubated for 1 hour. The mixture of TNF/M26 or TNF/244-12 were incubated on ice with L929 cells grown on coverslip for an another 15 minutes. The cells were fixed with 4% paraformaldehyde (PBS formulation) were for 10 minutes, blocked with phosphate buffer containing 0.5% BSA and 0.1% cold water fish gelatin for 15 minutes, and then incubated with rabbit anti-TNFR1 antibody (Abeam) for 1 hour. The cells were washed with PBS and then incubated with the relevant secondary antibody coupled to Alexa Fluor 488 or Alexa Fluor 568 (Invitrogen). Then the sample washed with PBS was mounted with Gelvatol/DABCO (Sigma-Aldrich). DNA was counterstained with DAPI (Sigma-Aldrich). All samples were analyzed by fluorescence microscopy at 60× using Nikon Eclipse 80i. Images were taken with NIS-Elements AR3.0 software using Hamamatsu camera.

T1 sequence (P01375 whole entry): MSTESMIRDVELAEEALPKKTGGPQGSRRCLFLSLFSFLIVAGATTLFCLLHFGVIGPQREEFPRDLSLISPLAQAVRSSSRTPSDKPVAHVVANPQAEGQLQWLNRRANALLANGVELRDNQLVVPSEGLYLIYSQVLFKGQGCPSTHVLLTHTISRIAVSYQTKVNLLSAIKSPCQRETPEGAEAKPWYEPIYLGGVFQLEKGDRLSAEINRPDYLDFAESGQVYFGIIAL

Consider `CN1C(=O)C(Cc2c[nH]c3ccccc23)NC1=S` (stereo not drawn) [Nec-1, Necrotatin-1, reference compound], for which the “necrosis induced by antibody 244-12 + TNF” value in the test with L929 cells (Nec-1 added to 244-12+TNF, necrosis converted into apoptosis) was “can be inhibited”.
For DNQLVVPSEG [P13-1], in the test on cells [1], the “Stimulation of cell proliferation” value is listed as “no”. Further, the “binding to cell necrosis-promoting antibodies” value in [2] is given as “Yes”. In addition, the “competitive inhibition of binding of TNF to mAb 244-12” value (shortened to “competitive inhibition”) in test [3] was “significantly inhibited”. For the same molecule, the “Inhibition of cell necrosis” value in test [4] (summary table) is recorded as “Yes”. Moreover, in the test with cells [5], the Apoptosis result is “no” and the Necrosis entry was “no”.
NQLVVPSEGL [P13-2]: in the test with cells [1], the “Stimulation of cell proliferation” value was “no”. Moreover, the “binding to cell necrosis-promoting antibodies” value in test [2] is reported as “Yes”. In [3], the “competitive inhibition” value is given as “significantly inhibited”. Further, the “Inhibition of cell necrosis” value in test [4] (summary table) is “Yes”. Moreover, in the test on cells [5], the Apoptosis entry is “no” and the Necrosis result is given as “no”.
In the case of QLVVPSEGLY [P13-3], the “Stimulation of cell proliferation” value in the test on cells [1] is on record as “no”. The “binding to cell necrosis-promoting antibodies” value in [2] was “Yes”. Also, the “competitive inhibition” value in test [3] is “significantly inhibited”. In test [4] (summary table), the “Inhibition of cell necrosis” value was “Yes”. In addition, in the test with cells [5], the Apoptosis result is listed as “no” and the Necrosis entry is on record as “no”.
For the molecule RDNQLVVPSE [P12-10], in the test on cells [1], the “Stimulation of cell proliferation” value is “no”. Besides, the “binding to cell necrosis-promoting antibodies” value in test [2] is given as “Yes”. Also, the “competitive inhibition” value in test [3] was “significantly inhibited”. In test [4] (summary table), the “Inhibition of cell necrosis” value is reported as “Yes”. Further, in the test on cells [5], the Apoptosis result is “no” and the Necrosis entry is on record as “no”.
For Tumor necrosis factor α [TNFα], in the test on L929 cells (TNF alone), the “cell fate of L929 cells” value is recorded as “apoptosis”. Also, the “Stimulation of cell proliferation” value in the test with cells [1] was “Yes”. Further, in test [2], the “binding to cell necrosis-promoting antibodies” value is listed as “Yes”. Besides, the “Inhibition of cell necrosis” value in test [4] (summary table) is “no”. Moreover, in the test with cells [5], the Apoptosis entry is listed as “Yes” and the Necrosis entry is recorded as “Yes”.

B1: QLQWLNRRANALLANGVELRDNQLVVPSEGLYLIYSQVLFKGQGCPSTHVLLTHTISRIAVSYQTKVNLLSAIKSPCQRE (protein)
chain: QLQWLNRRANALLANGVELRDNQLVVPSEGLYLIYSQVLFKGQGCPSTHVLLTHTISRIAVSYQTKVNLLSAIKSPCQRE
On to B1, for which, in the test with cells [1], the “Stimulation of cell proliferation” value is “no”. Besides, the “binding to purified cell necrosis-promoting antibody (244-12)” value in test [2] (ELISA plate coated with 2 μg/ml of P11-17) was “can bind”. Further, the “binding to cell necrosis-promoting antibodies” value in [2] is “Yes”. Further, the “reaction with synovial fluid of a control patient without autoantibodies” value in test [6] (sample SF010) is listed as “negative”. Also, the “binding to cell necrosis-promoting antibodies in joint fluid of arthritis patients” value in [6] (samples SF024, SF045) is on record as “bind”. Further, the “Inhibition of cell necrosis” value in test [4] (necrosis caused by purified 244-12 or by antibody in patients' synovial fluid (SF002, SF045)) was “can effectively inhibit cell necrosis”. For the same molecule, in [4] (summary table), the “Inhibition of cell necrosis” value is reported as “Yes”. Besides, in the test on cells [5], the Apoptosis entry is “no” and the Necrosis entry was “no”.

B2: QLQWLNRRANALLANGVELRDNQLVVPSEGLYLIYSQVLFKGQGCPSTHVLLTHTISRIAVFHQTKVNLLSAIKSPCQRE (protein)
chain: QLQWLNRRANALLANGVELRDNQLVVPSEGLYLIYSQVLFKGQGCPSTHVLLTHTISRIAVFHQTKVNLLSAIKSPCQRE
On to B2, for which the “Stimulation of cell proliferation” value in the test with cells [1] was “no”. Moreover, the “binding to cell necrosis-promoting antibodies” value in test [2] was “Yes”. Besides, in test [4] (summary table), the “Inhibition of cell necrosis” value is “Yes”. In the test on cells [5], the Apoptosis entry is recorded as “no” and the Necrosis entry is “no”.

B3: 244-12: cell necrosis-promoting monoclonal antibody binding TNF epitope QLVVPSE; light chain SEQ ID NO: 9, heavy chain SEQ ID NO: 10 (antibody, listed as Homo sapiens)
heavy: QIQLVQSGPELKKPGETVKISCKASGYTFTNYGMNWVKQAPGKGLKWMGWINTYTGEPTYADDFKGRFAFSLETSANTAYLQINNLRNEGMATYFCARHYRYAWFPYWGQGTLVTVSAAKTTPPSVYPLAPGCGDTTGSSVTLGCLVKGYFPESVTVTWNSGSLSSSVHTFPALLQSGLYTMSSSVTVPSSTWPSQTVTCSVAHPASSTTVDKKLEPSGPISTINPCPPCKECHKCPAPNLEGGPSVFIFPPNIKDVLMISLTPKVTCVVVDVSEDDPDVQISWFVNNVEVHTAQTQTHREDYNSTIRVVSTLPIQHQDWMSGKEFKCKVNNKDLPSPIERTISKIKGLVRAPQVYILPPPAEQLSRKDVSLTCLVVGFNPGDISVEWASNGHTEENYKDTAPVLDSDGSYFIYSKLNMKTSKWEKTDSFSCNVRHEGLKNYYLKKTISRSPGK
light: DIQMTQSPASLSASVGETVTITCRASGNIHIYLAWYQQKQGKSPQLLVYNAKTLADGVPSRFSGSGSGTQYSLKINSLQPEDFGSYYCQHFWSIPWTFGGGTKLEIKRADAAPTVSIFPPSSEQLTSGGASVVCFLNNFYPKDINVKWKIDGSERQNGVLNSWTDQDSKDSTYSMSSTLTLTKDEYERHNSYTCEATHKTSTSPIVKSFNRNEC
In the case of B3, the “TNF-induced apoptosis (expression of active caspase-3)” value was “blocked” with L929 cells (L929 cells, antibody added to TNF) and “blocked” in test [7]. The “cell fate of L929 cells” value in the test with L929 cells (antibody added together with TNF) was “necrosis”. In addition, the “binding to TNF by ELISA test” value with TNF is reported as “strongest”. In addition, the “direct binding of antibody to cell surface” value in the test with TNF receptors (absence of TNF) is recorded as “cannot directly bind to cell surface”. The “effect of antibody binding to TNF on binding of TNF to TNF receptors” value in the test on TNF receptors (confocal micrograph, L929 cells, TNF present) is reported as “did not affect”.
